Source: patent publication US4939177A, “Use of avarol for the control of AIDS and ARC” (Merz + Co. GmbH & Co., priority 1986, dated 1990)

Experiments:
[1] = system: normal T-lymphocytes; conditions: cited from earlier work
[2] = system: DTH to oxazolone in NMRI mice; assay: Contact allergy to oxazolone; assay type: in vivo, mouse; conditions: 3-30 mg/kg i.p., day -1 to +2 or day +6 to +8, P>0.05
Procedure: Allergic contact dermatitis against oxazolone was produced according to the method of Asherson and Ptak (Immunol. 15: 405-416; 1968) as well as those of Bure and Degrand (Agents and Actions 9: 534; 1979). Male NMRI mice (20-22 g; 10/group) were sensitized with 100 μl of a 2% oxazolone in acetone solution onto the shaved abdomen (day 0). Animals were treated with avarol (i.p.) daily from day -1 to +2 or from day +6 to +8; control group was treated with deoxymethasone (Casella-Hoechst) as a standard per os at a daily dose of 30 mg/kg for the same period of time as for avarol. Seven days after sensitization 10 μl of a 3% oxazolane (this concentration was previously found to give more reproducible results than the lower 2% concentration) solution were topically applied onto the inner side of one ear, whereas the other ear received only acetone. […] Treated groups were compared with controls using the U-test.

[3] = system: human peripheral blood lymphocytes (IgM); assay: In vitro IgM production by peripheral blood lymphocytes; assay type: cell-based
Procedure: Human peripheral blood lymphocytes (6×10^5 cells/ml) were cultured in the presence of 0 to 2 μg/ml of pokeweed mitogen (PWM; Sigma no. 9379) in Dulbeccos minimum essential medium, supplemented with 20% fetal calf serum, for 6 days. The assays were performed in a final volume of 200 μl in microtiter plates (Dynatech; M129B) (Muller et al., Eur. J. Cancer Clin. Oncol. 22: 473-476; 1986). Avarol in a concentration range of 0-3 μg/ml was added at time 0 or 3 days after starting the culture. The supernatants were harvested and assayed for human immunoglobulin content.
The culture supernatants were assayed by the enzyme-linked immunosorbent assay (Houtman et al., Clin. Exp. Immunol. 62: 696-704; 1985) using anti-human IgG (Dakopatts, Hamburg; P214) and anti-human IgM (Dakopatts; P215). These antibodies were conjugated to peroxidase. Bound enzyme activity was measured using 2,2'-azino-bis(3-ethylbenzthiazolinesulfonic acid) (Sigma no. A-1888) as substrate.

[4] = system: IgM titer; assay: Serum IgM titer of SRBC-immunized mice; assay type: in vivo, mouse; conditions: 30 mg/kg i.p.
Procedure: The plaque test of Jerne and Nordin (Science 140: 405-406, 1963) was used with the modification given by Cunningham and Szenberg (Immunolog. 14: 599-601; 1968). Briefly, 8 male NMRI mice per group (20-22 g) were immunized on day 0 by i.p. injection of 5×10^8 SRBC in 0.5 ml saline. Treatment with avarol was done i.p. either from day 0 to day +4 or from day -4 to day 0. One hour after the last drug administration, the animals were killed by a blow on the head and bled. The spleens were removed and a single cell suspension was prepared by teasing the pooled spleens through a 120-μm mesh sieve. After lysing the erythrocytes by 0.15M NH4 Cl, the cells were washed twice in Hank's balanced salt solution containing 29 ml of 7.5% NaHCO3 and 10 ml of 1M HEPES buffer solution per one liter. The cells were resuspended in 2 ml per spleen. Six Cunningham chambers per group were filled with a mixture of 0.5 ml of a suitable dilution of spleen cells (generally 1:100), 0.5 ml of a suspension of SRBC (10^9 /ml) and 125 μl of normal guinea pig complement. After 90-120 min of incubation at 37° C., the number of plaques was counted. Plaques per spleen or per 10^6 spleen cells were calculated.
The pooled blood of 8 mice was centrifuged to obtain the serum. IgM and IgG titers were measured with the mercaptoethanol method (Hudson, L. and Hay, F. C. Practical Immunology, Blackwell Sci., Oxford; 1983).

[5] = system: DTH to sheep red blood cells (SRBC) in NMRI mice; assay: Delayed-type hypersensitivity to sheep red blood cells; assay type: in vivo, mouse
Procedure: DTH was produced according to the method of Lagrange et al. (J. Exp. Med. 139: 528-542; 1974) and Liew (Eur. J. Immunol. 7, 714-718; 1977). Male NMRI mice (20-23 g, 10 animals/group) were immunized with 10^8 SRBC/40 μl into one foot pad (day 0). Four days later 10^9 SRBC/40 μl were injected into the other foot pad. After 24 hours, paw size was measured with a dial gauge caliper Odi-Test OOT (H. C. Kroeplin, Schluchtern, Germany). Avarol (in 0.15% [w/v] methylcellulose) was administered daily i.p. either from day -2 to +1 or from day +2 to +4. The level of DTH was expressed as foot pad increase, determined after 24 hrs; and it is given in mm. Non-treated groups were injected i.p. with methylcellulose only. Treated groups were compared with the controls using the U-test of Wilcoxon et al. (Sachs, L. Angewandte Statistik, Springer-Verlag, Berlin; 1984).

[6] = system: lymphocyte cultures; assay: [^3 H]-dThd incorporation in lymphocyte cultures from avarol-pretreated mice; assay type: cell-based, mouse; conditions: pretreatment of mice; macrophage-containing and macrophage-depleted cultures
Excerpt: The effect of avarol on the lymphoid system was studied both in vitro and in vivo. […] The stimulatory influence of avarol on humoral immune responses is not accompanied by a change of the antibody-mediated hypersensitivity reaction, as measured by the Arthus reaction. No significant influence of avarol on the cellular immune system in vivo (rats or mice) was found, as taken from studies on delayed-type hypersensitivity reactions to sheep red blood cells and to oxazolone.

[7] = system: male NMRI mice; conditions: cited from earlier work

In the case of `CC1=CCC[C@H]2[C@](C)(Cc3cc(O)ccc3O)[C@@H](C)CC[C@]12C` [Avarol, 2-[(1R)-1,2,3,4,4a,7,8,8aα-octahydro-1β,2β,4aβ,5-tetramethyl-1-naphthylmethyl]-1,4-benzenediol], the “concentration inhibiting [^3 H] dThd-incorporation rate by 50%” value [1] is given as 0.5 to 1.3 µg/mL, the “influence on DTH to oxazolone, in words” value [2] is given as “did not influence significantly” and the “IgM production, in words” value ([3]; 0.3 or 1 μg/ml, irrespective of PWM) is given as “significant increase”. For the same compound, the IgM synthesized ([3]; avarol 0.3 μg/ml, PWM +, 0 to 6 days) was 20.4 ± 5.1 µg/mL, the IgM synthesized ([3]; avarol 0.3 μg/ml, PWM +, 3 to 6 days) was 24.7 ± 5.6 µg/mL and the IgM synthesized ([3]; avarol 0.3 μg/ml, PWM -, 0 to 6 days) was 14.7 ± 3.4 µg/mL. For the same compound, the IgM synthesized ([3]; avarol 0.3 μg/ml, PWM -, 3 to 6 days) was 14.2 ± 3.3 µg/mL, the IgM synthesized ([3]; avarol 1.0 μg/ml, PWM +, 0 to 6 days) was 23.5 ± 5.5 µg/mL and the IgM synthesized ([3]; avarol 1.0 μg/ml, PWM +, 3 to 6 days) was 25.6 ± 5.9 µg/mL. The IgM synthesized ([3]; avarol 1.0 μg/ml, PWM -, 0 to 6 days) was 15.6 ± 4.0 µg/mL, the IgM synthesized ([3]; avarol 1.0 μg/ml, PWM -, 3 to 6 days) was 15.9 ± 4.2 µg/mL and the IgM synthesized ([3]; avarol 3.0 μg/ml, PWM +, 0 to 6 days) was 10.5 ± 2.6 µg/mL. The IgM synthesized ([3]; avarol 3.0 μg/ml, PWM +, 3 to 6 days) was 11.7 ± 2.9 µg/mL, the IgM synthesized ([3]; avarol 3.0 μg/ml, PWM -, 0 to 6 days) was 8.1 ± 1.8 µg/mL and the IgM synthesized ([3]; avarol 3.0 μg/ml, PWM -, 3 to 6 days) was 8.4 ± 1.9 µg/mL. For the same compound, the “IgM production, in words” value ([3]; higher avarol concentrations) was “turned to normal values”, the “Titer IgM” value ([4]; from 0 to +4 days, untreated 256) was 256 and the “Titer IgM” value ([4]; from -4 to 0 days, untreated 512) was 512. For the same compound, the “DTH to SRBC, immunosuppressive influence” value ([5]; day +2 to +4, doses higher than 10 mg/kg i.p.) was “weak but significant immunosuppressive effect”, the “DTH to SRBC, immunosuppressive influence” value ([5]; day -2 to +1, up to daily doses of 30 mg/kg i.p.) was “no significant immunosuppressive influence” and the “[^3 H]-dThd incorporation rate, in words” value [6] was “higher [^3 H]-dThd incorporation rate”. For the same compound, the 50% lethal dose ([7]; NMRI mice, previous experiments) was 269.1 mg/kg, the “Acute toxicity LD10” value ([7]; male NMRI mice, acute) was 156.4 mg compound/kg and the “Subacute toxicity LD10” value ([7]; male NMRI mice, subacute) was 138.6 mg compound/kg. For the same compound, the “Subacute toxicity LD50” value ([7]; male NMRI mice, subacute) was 218.4 mg compound/kg.
